One series has as its system MDA-GSC 262. The series can be described thus: Cell viability dose response (IC50), MDA-GSC 262. Type of series: cell-based. As to conditions: Homo sapiens, mean of three independent experiments. Here is the method:
(§1) MDA-GSCs were plated at 50,000 cells/well into 12-well plates at and allowed to grow for 5 days until neurospheres were formed. The cells were then treated with either TCP, GSK-LSD1, or RN-1 at various concentrations for 5 days. Next, the cells were collected and neurospheres were dissociated with Accutase (BioLegend; San Diego, CA). Cell viability was determined using a trypan dye exclusion assay and read with the Vi-Cell XR Cell Viability Analyzer (Beckman Coulter; Brea, CA). NHAs were plated at 50,000 cells/well into 12-well plates and allowed to adhere overnight. The following day, NHAs were treated with the LSD1 inhibitors. After 5 days, the cells were detached using TrypLE and assessed with the trypan blue dye exclusion assay.
(§2) The alamarBlue cell viability (Bio-Rad; Hercules, CA) was performed on the MDA-GSCs according to the manufacturer’s protocol. The cells were plated at 5,000 cell/well into a 96-well plate and allowed to grow for 5 days. After 5 days, the alamarBlue reagent was added and fluorescence was measured with the Synergy 2 (BioTek Instruments; Winooski, VT) plate reader according to the manufacturer’s protocol.

The subject of another series is MDA-GSC 17. The series can be described thus: Cell viability dose response (IC50), MDA-GSC 17. Type of series: cell-based. As to conditions: Homo sapiens, mean of three independent experiments. The procedure: as §1, §2
Another series has as its system MDA-GSC 6–27. Nature of the series: Cell viability dose response (IC50), MDA-GSC 6–27. Type of series: cell-based. As to conditions: Homo sapiens, mean of three independent experiments. The procedure: as §1, §2
The next series concerns MDA-GSC 8–11. The series can be described thus: Cell viability dose response (IC50), MDA-GSC 8–11. Type of series: cell-based. Particulars: Homo sapiens, mean of three independent experiments. Here is the method: as §1, §2
A further series concerns MDA-GSC 7–2. The series can be described thus: Cell viability dose response (IC50), MDA-GSC 7–2. The series is classed as cell-based. As to conditions: Homo sapiens, mean of three independent experiments. Here is the method: as §1, §2
The test system of the next series is MDA-GSC lines. Nature of the series: Cell proliferation of MDA-GSCs tracked over 5 days. Type of series: cell-based, Human. As to conditions: 400 μM, after 5 days; all MDA-GSC lines apart from MDA-GSC311. The procedure: as §2
Figure 3 Effects of GSK-LSD1 on GSCs cell proliferation and neurosphere formation. (A–I) Cell proliferation of MDA-GSCs was tracked over 5 days after treatment with GSK-LSD1 at 400 μM. Day five data was analyzed with a student’s t-test. ns = p > 0.05, *p ≤ 0.05, **p ≤ 0.01, ***p ≤ 0.001, ****p ≤ 0.0001. (J) Bar graphs showing the number of neurospheres formed by MDA-GSCs after treatment with GSK-LSD1. Grouped data was analyzed using a two-way ANOVA with the Šídák multiple comparisons test. ns = p > 0.05, ***p ≤ 0.001, ****p ≤ 0.0001.

A short description of series [1]: Complete blood count at day 50 in xenograft mice. The series is classed as in vivo, athymic nude mice. Here is the method:
Once confirmation of intracranial tumor engraftment at 7 days post-engraftment, the mice were equally randomized into groups to receive either GSK-LSD1 or the vehicle control. The mice received GSK-LSD1 1 mg/kg diluted in DMSO and PBS (5 and 95%, respectively) via intraperitoneal injection (200 μL/mouse) while the control mice received the untreated vehicle in parallel. In accordance with the approved IACUC protocol (No: 638-RN03) at MD Anderson Cancer Center, treatment continued until the mice succumbed to tumor burden and were found in a moribund condition as determined by neurological impairment (hydrocephalus, seizures, inactivity, and/or ataxia) or morbidity (hunched posture or weight loss). At this time mice were euthanized by both carbon dioxide exposure and cervical dislocation. Flow cytometric characterization of immune cell subsets was carried out in blood samples obtained from mice (four control mice and six GSK-LSD1 mice) in each group at day 50 via cardiac puncture and the sample was processed using Ficoll (GE Healthcare; Chicago, IL) centrifugation to collect the peripheral blood mononuclear cells (PBMCs). Next, PBMCs were stained with the Ghost Dye Violet (Tonbo; San Diego, CA) and then incubated with antibodies at 4°C for 25 min before analysis. The antibodies anti-NKG2D APC (Biolegend #320807), CD16-PE-Cy7 (ThermoFisher #25–0168-42), CD56-PE (BD Biosciences #345812), anti-CD3-FITC (Biolegend; #100305), CD4-PerCP (ThermoFisher #MHCD0431), anti-CD8-ACP-Cy7 (Biolegend #344713), and anti-SLAMF7-PE (eBioscience #12–2,229-42) were used in concentrations recommended per manufacturer’s instruction. Samples were washed and resuspended in FACS buffer for analysis on a Fortessa flow cytometer (BD Biosciences; Haryana, India).
Given the effect on tumor regression required almost 2 months of treatment, we sought to determine if any hematological toxicities were present from the prolonged exposure to LSD1 inhibition. At day 50, a subset of mice from each group were sacrificed and blood was collected for evaluation with a Complete Blood Count (CBC) to compare different populations of blood cells. […] However, the platelet count in the GSK-LSD1 receiving mice is higher compared to the control and may be secondary to the underlying tumor burden (Figure 5F). The WBC differential further confirmed the absence of hematological toxicity with no difference between the GSK-LSD1 and the control group in any of the individual cell types (Figure 5G). […] In parallel, the peripheral blood mononuclear cells (PBMCs) were also isolated and probed to assess the effect of GSK-LSD1. Prior studies of LSD1 inhibition via pharmacological inhibitors prompted the assessment of GSK-LSD1 effect on different subpopulations of natural killer (NK) cells and T-cells ([26], [30]).

Another series relates to MDA-GSC7-2. The series can be described thus: qPCR of resistance-related genes, MDA-GSC7-2. The series is classed as cell-based, Human. As to conditions: MDA-GSC7-2 (sensitive). Here is the method:
(§3) Total RNA was extracted using RNeasy Plus Mini Kit (Qiagen; Hilden, Germany) following the manufacturer’s protocol. cDNA was synthesized with the iScript cDNA synthesis kit (Bio-Rad; Hercules, CA), qPCR was performed using Forget-Me-Not EvaGreen qPCR kit (Biotium; Fremont, CA), and samples were analyzed with the LightCycler96 (Roche; Basel, Switzerland). Cq values were normalized to PPIA and reported as relative fold change from untreated control.
(In general: Quantitative PCR measures a nucleic acid by following its amplification.)

The test system of a further series is MDA-GSC8-11. Nature of the series: qPCR of resistance-related genes, MDA-GSC8-11. Particulars: MDA-GSC8-11 (resistant). The series is classed as cell-based, Human. The procedure: as §3
The next series deals with MDA-GSC17. Nature of the series: qPCR of resistance-related genes, MDA-GSC17. The series is classed as cell-based, Human. Particulars: MDA-GSC17 (sensitive). Here is the method: as §3
A further series relates to human T cells. More on the design: method as in PMID 32166329. Particulars: direct effect on human T cells; cited from earlier work.

Molecules are shown by their SMILES.

In the case of `c1ccc([C@@H]2C[C@H]2NC2CCNCC2)cc1` [GSK-LSD1], the IC50 in the series with MDA-GSC 262 is over 750 µM; in the series on MDA-GSC 17, 253 µM; with MDA-GSC 6–27, 598 µM; in the series with MDA-GSC 8–11, 726 µM; in the series with MDA-GSC 7–2 it was 518 µM. The “effect on MDA-GSC proliferation” value with MDA-GSC lines is on record as “Consistent anti-proliferative effects”. The “leukopenia or erythropenia (CBC)” value in series [1] (day 50, 1 mg/kg intraperitoneal, vs untreated mice) was “no evidence of leukopenia or erythropenia”. The platelet count result in series [1] (day 50, compared to the control) is on record as “higher”. Further, in series [1] (day 50, vs control group), the “WBC differential, individual cell types” value was “no difference”. The RBC indices result in [1] (day 50, except for red cell distribution width (RDW)) is on record as “largely demonstrate no effect”. Moreover, the “expression of resistance-related genes (FTH1, RAB39B, HKDC1, FAM213A)” value in the series on MDA-GSC7-2 is “inappreciable effects”. For the same compound, the “expression of resistance-related genes” value was “increase in the same two gene” with MDA-GSC8-11 and “not” in the series on MDA-GSC17. Besides, the “human T cell growth” value in the series with human T cells is “minimally impacted”.

In general, IC50 refers to the concentration at which inhibition is half-maximal.

Values taken from article PMC10111022, “Comparison of pharmacological inhibitors of lysine-specific demethylase 1 in glioblastoma stem cells reveals inhibitor-specific efficacy profiles” (Frontiers in Neurology, 2023).
